Measurements as given in patent US8680159B2, “Bradykinin 1 receptor modulating compounds” (Gruenenthal GmbH, priority 2010, dated 2014).

Assays:
[1] = target: T1, human B1R receptor (CHO K1 cells stably transfected with the human B1R gene) (Homo sapiens, UniProt P46663); assay: Functional study on the bradykinin receptor 1 (B1R), Ca2+ fluorescence (Fluo-4) FLIPR/Novostar assay, hB1R cells; assay type: cell-based; conditions: CHO-K1, read-out: % inhibition (human B1R) at 10 μM
T1 construct: expressed in transfected cells; host or cells: CHO K1 cells (Chinese hamster ovary), stably transfected
T1 sequence (P46663 1-353): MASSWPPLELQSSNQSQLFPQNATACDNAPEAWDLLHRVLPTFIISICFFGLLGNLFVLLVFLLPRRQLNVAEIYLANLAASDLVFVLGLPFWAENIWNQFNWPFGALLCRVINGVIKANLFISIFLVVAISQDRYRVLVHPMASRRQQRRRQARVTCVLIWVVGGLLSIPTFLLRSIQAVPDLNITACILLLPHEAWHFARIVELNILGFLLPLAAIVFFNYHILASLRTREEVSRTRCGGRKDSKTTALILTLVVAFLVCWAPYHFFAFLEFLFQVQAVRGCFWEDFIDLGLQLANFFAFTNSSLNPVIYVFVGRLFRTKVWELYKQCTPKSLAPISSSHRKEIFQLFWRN
In short: (§1)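 Test compounds (10 μM) were added first and the Ca2+ rise was scored as % activation against Lys-Des-Arg9-bradykinin (≥50 nM, human) or Des-Arg9-bradykinin (≥1 μM, rat). After 6-20 min, the matching agonist was given at its EC80, and % inhibition relative to maximal achievable inhibition was calculated.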

[2] = target: T2, B1R receptor of the rat (CHO K1 cells stably transfected with the B1R gene of the rat) (Rattus norvegicus, UniProt P97583); assay: Functional study on the bradykinin receptor 1 (B1R), Ca2+ fluorescence (Fluo-4) FLIPR/Novostar assay, rB1R cells; assay type: cell-based; conditions: CHO-K1, 10 μM, read-out: % inhibition (rat B1R) at 10 μM
T2 construct: expressed in transfected cells; host or cells: CHO K1 cells (Chinese hamster ovary), stably transfected
T2 sequence (P97583 1-337): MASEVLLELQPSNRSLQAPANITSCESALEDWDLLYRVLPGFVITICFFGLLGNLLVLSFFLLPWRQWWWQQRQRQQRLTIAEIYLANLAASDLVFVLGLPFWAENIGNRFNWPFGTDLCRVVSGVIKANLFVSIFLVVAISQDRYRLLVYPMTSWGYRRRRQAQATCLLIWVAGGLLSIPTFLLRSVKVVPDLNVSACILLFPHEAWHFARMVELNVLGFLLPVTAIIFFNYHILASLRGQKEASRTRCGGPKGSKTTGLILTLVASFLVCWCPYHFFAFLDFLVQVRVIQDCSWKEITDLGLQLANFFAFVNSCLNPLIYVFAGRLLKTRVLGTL
In short: as §1

Row | inhibition at 10 µM [1] | inhibition at 10 µM [2] | Structure (SMILES)
1 | 100% | 96% | CN(C(=O)c1ccc2c(c1)[C@H](NC(=O)Cc1ccccc1)CC2)C1CCN(c2ccncc2)CC1 [Example H-25, (3R)-N-Methyl-3-[(2-phenyl-acetyl)amino]-N-(1-pyridin-4-yl-piperidin-4-yl)-2,3-dihydro-1H-indene-5-carboxylic acid amide]
2 | 100% | 100% | CC(C)CC(=O)N[C@@H]1CCc2ccc(C(=O)N(C)C3CCN(c4ccncc4)CC3)cc21 [Example H-28, (3R)-N-Methyl-3-(3-methyl-butanoylamino)-N-(1-pyridin-4-yl-piperidin-4-yl)-2,3-dihydro-1H-indene-5-carboxylic acid amide]
3 | 99% | 100% | CN(C(=O)c1ccc2c(c1)[C@H](NC(=O)c1ccccc1F)CC2)C1CCN(c2ccncc2)CC1 [Example H-29, (3R)-3-[(2-Fluoro-benzoyl)amino]-N-methyl-N-(1-pyridin-4-yl-piperidin-4-yl)-2,3-dihydro-1H-indene-5-carboxylic acid amide]
4 | 100% | 70% | CN(C(=O)c1ccc2c(c1)[C@H](NC(=O)c1cncnc1)CC2)C1CCN(c2ccncc2)CC1 [Example H-31, N-[(1R)-6-[Methyl-(1-pyridin-4-yl-piperidin-4yl)carbamoyl]-2,3-dihydro-1H-inden-1-yl]-pyrimidine-5-carboxylic acid amide]
5 | 100% | 101% | CN(C(=O)c1ccc2c(c1)[C@H](NC(=O)c1c(F)cccc1Cl)CC2)C1CCN(c2ccncc2)CC1 [Example H-32, (3R)-3-[(2-Chloro-6-fluoro-benzoyl)amino]-N-methyl-N-(1-pyridin-4-yl-piperidin-4-yl)-2,3-dihydro-1H-indene-5-carboxylic acid amide]
6 | 64% | 7% | CC(C)CC(=O)N[C@@H]1CCc2cc(C(=O)N(C)C3CCN(c4ccncc4)CC3)ccc21 [Example H-34, (1R)-N-Methyl-1-(3-methyl-butanoylamino)-N-(1-pyridin-4-yl-piperidin-4-yl)-2,3-dihydro-1H-indene-5-carboxylic acid amide]
7 | 100% | 105% | CN(C(=O)c1ccc2c(c1)[C@H](NC(=O)Cc1ccccc1Cl)CC2)C1CCN(c2ccncc2)CC1 [Example H-35, (3R)-3-[[2-(2-Chlorophenyl)-acetyl]amino]-N-methyl-N-(1-pyridin-4-yl-piperidin-4-yl)-2,3-dihydro-1H-indene-5-carboxylic acid amide]
8 | 100% | 98% | COc1ncccc1C(=O)N[C@@H]1CCc2ccc(C(=O)N(C)C3CCN(c4ccncc4)CC3)cc21 [Example H-41, 2-Methoxy-N-[(1R)-6-[methyl-(1-pyridin-yl-piperidin-4yl)-carbamoyl]-2,3-dihydro-1H-inden-1-yl]-pyridine-3-carboxylic acid amide]

Continued, compound first:

Row | Structure (SMILES) | inhibition at 10 µM [1] | inhibition at 10 µM [2]
9 | CN(C(=O)c1ccc2c(c1)[C@H](NC(=O)c1cccc(C(F)(F)F)c1Cl)CC2)C1CCN(c2ccncc2)CC1 [Example H-24, (3R)-3-[[2-Chloro-3-(trifluoromethyl)-benzoyl]amino]-N-methyl-N-(1-pyridin-4-yl-piperidin-4-yl)-2,3-dihydro-1H-indene-5-carboxylic acid amide] | 100% | 98%
10 | CN(C(=O)c1ccc2c(c1)CC[C@H]2N1Cc2cccc(Cl)c2C1=O)C1CCN(c2ccccn2)CC1 [Example H-26, (1R)-1-(4-Chloro-3-oxo-1,2-dihydro-isoindol-2-yl)-N-methyl-N-(1-pyridin-2-yl-piperidin-4-yl)-2,3-dihydro-1H-indene-5-carboxylic acid amide] | 52% | 0%
11 | CN(C(=O)c1ccc2c(c1)CC[C@H]2N1Cc2cccc(Cl)c2C1=O)C1CCN(Cc2ccncc2)CC1 [Example H-27, (1R)-1-(4-Chloro-3-oxo-1,2-dihydro-isoindol-2-yl)-N-methyl-N-[1-(pyridin-4-yl-methyl)-piperidin-4-yl]-2,3-dihydro-1H-indene-5-carboxylic acid amide] | 74% | 11%
12 | CN(C(=O)c1ccc2c(c1)[C@H](NC(=O)c1ccccc1C(F)(F)F)CC2)C1CCN(c2ccncc2)CC1 [Example H-30, (3R)-N-Methyl-N-(1-pyridin-4-yl-piperidin-4-yl)-3-[[2-(trifluoromethyl)-benzoyl]amino]-2,3-dihydro-1H-indene-5-carboxylic acid amide] | 100% | 99%
13 | CN(C(=O)c1ccc2c(c1)[C@H](NS(=O)(=O)c1ccccc1Cl)CC2)C1CCN(c2ccncc2)CC1 [Example H-33, (3R)-3-[[(2-Chlorophenyl)sulfonyl]amino]-N-methyl-N-(1-pyridin-4-yl-piperidin-4-yl)-2,3-dihydro-1H-indene-5-carboxylic acid amide] | 100% | 101%
14 | CN(C(=O)c1ccc2c(c1)[C@H](NC(=O)c1cnccc1C(F)(F)F)CC2)C1CCN(c2ccncc2)CC1 [Example H-36, N-[(1R)-6-[Methyl-(1-pyridin-4-yl-piperidin-4-yl)-carbamoyl]-2,3-dihydro-1H-inden-1-yl]-4-(trifluoromethyl)-pyridine-3-carboxylic acid amide] | 100% | 105%
15 | CN(C(=O)c1ccc2c(c1)[C@H](NC(=O)c1cccnc1C(F)(F)F)CC2)C1CCN(c2ccncc2)CC1 [Example H-37, N-[(1R)-6-[Methyl-(1-pyridin-4-yl-piperidin-4-yl)-carbamoyl]-2,3-dihydro-1H-inden-1-yl]-2-(trifluoromethyl)-pyridine-3-carboxylic acid amide] | 100% | 107%
16 | O=C(N[C@@H]1CCc2ccc(C(=O)N(C3CC3)C3CCN(c4ccncc4)CC3)cc21)c1ccccc1Cl [Example H-38, (3R)-3-[(2-Chloro-benzoyl)amino]-N-cyclopropyl-N-(1-pyridin-4-yl-piperidin-4-yl)-2,3-dihydro-1H-indene-5-carboxylic acid amide] | 100% | 103%
17 | CN(C(=O)c1ccc2c(c1)[C@H](NC(=O)c1ccccc1Cl)CC2)C1CCN(c2ccncc2)C1 (stereo partly drawn) [Example H-39, (3R)-3-[(2-Chloro-benzoyl)amino]-N-methyl-N-(1-pyridin-4-yl-pyrrolidin-3-yl)-2,3-dihydro-1H-indene-5-carboxylic acid amide] | 100% | 100%
18 | CN1CCC(N2CCC(N(C)C(=O)c3ccc4c(c3)[C@H](NC(=O)c3ccccc3Cl)CC4)CC2)CC1 [Example H-40, (3R)-3-[(2-Chloro-benzoyl)amino]-N-methyl-N-[1-(1-methyl-piperidin-4-yl)-piperidin-4-yl]-2,3-dihydro-1H-indene-5-carboxylic acid amide] | 52% | 73%
19 | CN1CCC(N2CCC(NC(=O)c3ccc4c(c3)CC[C@H]4N3Cc4cccc(Cl)c4C3=O)CC2)CC1 [Example H-42, (1R)-1-(4-Chloro-3-oxo-1,2-dihydro-isoindol-2-yl)-N-[1-(1-methyl-piperidin-4-yl)-piperidin-4-yl]-2,3-dihydro-1H-indene-5-carboxylic acid amide] | 65% | 18%
